Key:
[1] = tested on: p52 (NF-kB2) nuclear translocation, HeLa cells; assay: p52 (NF-kB2) nuclear translocation assay in HeLa cells (non-classical NF-kB signaling, anti-lymphotoxin beta receptor antibody stimulated); type: cell-based; details: Homo sapiens, 100 ng/mL anti-lymphotoxin beta receptor antibody for 5 hours, read-out: p52 HeLa Transloc Assay (IC50)
Procedure: (§1) Several assays were developed to profile the cellular activities of NIK inhibitors.
(§2) (2) A second set of cell assay are used to define the selectivity of NIK inhibitors toward inhibition of classical vs. non-classical NF-kB signaling and rely on quantification of the nuclear translocation of p52 (NF-kB2) and REL-A (p65) using high content cellular imaging. For the p52 (non-classical NF-kB signaling) nuclear translocation assay, HeLa cells are treated with different concentrations of compounds (0.2% DMSO final) in medium containing 10% fetal bovine serum and then stimulated with 100 ng/mL of an anti-lymphotoxin beta receptor antibody (R&D Systems) for 5 hours. In the REL-A nuclear translocation assay, HeLa cells are incubated with compounds (0.2% DMSO final) for 4.5 hours in medium containing 10% fetal bovine serum before stimulating them with 10 ng/mL tumor necrosis factor (TNF)-α (R&D Systems) for 30 minutes. Cells are fixed with 4% paraformaldehyde, permeabilized by adding 0.1% Triton X-100 in phosphate buffered saline, and then are incubated with either 2 ug/mL anti-p52 antibody (Millipore) or 400 ng/mL anti-REL-A (p65) antibody (Santa Cruz Biotechnology). Finally, the cells are incubated with an Alexa488-labeled secondary antibody (Invitrogen) and DRAQ5 DNA stain (Biostatus). Imaging is carried out using an Opera reader (Perkin Elmer) and data are analyzed with the aid of Acapella software (Perkin Elmer). The p52 or REL-Atranslocation into the nucleus is quantified by the ratio of the nuclear to cytoplasmic signal intensity. […] The compounds in listed in Table 1 have the corresponding inhibitory value (IC50 in micromolar) for NIK p52 Translocation Assay as set forth in Table 2.
(§3) The compounds in listed in Table 1 have the corresponding inhibitory values (IC50 in micromolar) for the Translocation Assays as set forth in Table 2.

[2] = biological target: nuclear factor-kappa B (NF-kB)-inducing kinase (NIK) (Homo sapiens (Human), UniProt Q99558); assay: NIK enzyme inhibition assay (Transcreener ADP, NIK ADP-FP); type: biochemical; details: purified NIK 0.5 nM, 10 μM ATP, fluorescence polarization; read-out: NIK ADP-FP (Ki μM)
[3] = tested on: REL-A (p65) nuclear translocation, HeLa cells; assay: REL-A (p65) nuclear translocation assay in HeLa cells (classical NF-kB signaling, TNF-α stimulated); type: cell-based; details: Homo sapiens, 0.5 h; HeLa cells, 10 ng/mL TNF-α for 30 minutes; read-out: REL-A HeLa Transloc Assay (IC50)
Procedure: as §1, §2, §3

nuclear factor-kappa B (NF-kB)-inducing kinase (NIK), sequence (Q99558 whole entry): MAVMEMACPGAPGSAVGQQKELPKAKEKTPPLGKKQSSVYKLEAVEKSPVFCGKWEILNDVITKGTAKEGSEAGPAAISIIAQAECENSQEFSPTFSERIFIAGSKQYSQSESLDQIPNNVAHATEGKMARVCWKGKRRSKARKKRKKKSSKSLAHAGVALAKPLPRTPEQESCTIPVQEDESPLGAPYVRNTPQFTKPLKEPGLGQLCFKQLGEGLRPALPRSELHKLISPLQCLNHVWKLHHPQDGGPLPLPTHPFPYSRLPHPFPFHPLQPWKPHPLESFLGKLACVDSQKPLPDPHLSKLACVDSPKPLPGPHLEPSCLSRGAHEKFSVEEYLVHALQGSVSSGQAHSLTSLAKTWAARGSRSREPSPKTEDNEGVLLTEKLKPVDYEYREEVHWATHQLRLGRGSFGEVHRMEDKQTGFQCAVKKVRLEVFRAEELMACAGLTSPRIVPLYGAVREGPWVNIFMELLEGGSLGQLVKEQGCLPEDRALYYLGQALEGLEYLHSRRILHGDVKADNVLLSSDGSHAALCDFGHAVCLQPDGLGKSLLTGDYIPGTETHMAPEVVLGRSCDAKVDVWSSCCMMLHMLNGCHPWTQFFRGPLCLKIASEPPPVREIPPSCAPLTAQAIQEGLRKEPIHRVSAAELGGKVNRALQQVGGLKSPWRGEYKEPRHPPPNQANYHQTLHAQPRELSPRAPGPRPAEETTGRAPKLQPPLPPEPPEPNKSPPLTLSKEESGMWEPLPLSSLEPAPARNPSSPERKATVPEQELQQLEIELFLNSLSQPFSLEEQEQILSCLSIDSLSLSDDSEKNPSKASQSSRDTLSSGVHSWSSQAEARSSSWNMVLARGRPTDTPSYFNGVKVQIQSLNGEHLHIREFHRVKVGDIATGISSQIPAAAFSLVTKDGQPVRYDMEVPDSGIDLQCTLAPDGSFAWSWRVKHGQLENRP

SMILES	IC50 [1]	Ki [2]	IC50 [3]
COc1ncc2c(C(N)=O)nn(-c3cccc(C#C[C@]4(O)CCN(C)C4=O)c3)c2n1 [Compound 160, 1-[3-[2-[(3R)-3-hydroxy-1-methyl-2-oxo-pyrrolidin-3-yl]ethynyl]phenyl]-6-methoxy-pyrazolo[3,4-d]pyrimidine-3-carboxamide]	66.8 nM	0.13 nM	20000 nM
CN1CC[C@@](O)(C#Cc2cccc(-n3nc(C(N)=O)c4ccccc43)c2)C1=O [Compound 1, 1-[3-[2-[(3R)-3-hydroxy-1-methyl-2-oxo-pyrrolidin-3-yl]ethynyl]phenyl]indazole-3-carboxamide]	57 nM		20000 nM
CN1CC[C@@](O)(C#Cc2cccc(-c3nc(C(N)=O)n4ccc(C#N)cc34)c2)C1=O [Compound 90, 7-cyano-1-[3-[2-[(3R)-3-hy-droxy-1-methyl-2-oxo-pyrroli-din-3-yl]ethynyl]phenyl] imidazo[1,5-a]pyridine-3-car-boxamide]	63.4 nM	0.05 nM	2000 nM
CN1CC[C@@](O)(C#Cc2cccc(-n3nc(C(N)=O)c4cccnc43)c2)C1=O [Compound 53, 1-[3-[2-[(3R)-3-hydroxy-1-methyl-2-oxo-pyrrolidin-3-yl]ethynyl]phenyl]pyrazolo [3,4-b]pyridine-3-carboxamide]	37.9 nM		20000 nM
CN1CC[C@@](O)(C#Cc2cccc(-n3nc(C(N)=O)c4c3OCCC4)c2)C1=O [Compound 12, 1-[3-[2-[(3R)-3-hydroxy-1-methyl-2-oxo-pyrrolidin-3-yl]ethynyl]phenyl]-5,6-dihydro-4H-pyrano[2,3-c]pyrazole-3-carboxamide]	187 nM	1.56 nM	20000 nM
CN1CC[C@@](O)(C#Cc2ccnc(-n3nc(C(N)=O)c4ccc(F)cc43)c2)C1=O [Compound 63, 6-fluoro-1-[4-[2-[(3R)-3-hy-droxy-1-methyl-2-oxo-pyrroli-din-3-yl]ethynyl]-2-pyri-dyl]indazole-3-carboxamide]	27 nM	0.1 nM	2000 nM
COc1ccc2c(-c3cccc(C#C[C@]4(O)CCN(C)C4=O)c3)nc(C(N)=O)n2c1 [Compound 98, 1-[3-[2-[(3R)-3-hydroxy-1-methyl-2-oxo-pyrrolidin-3-yl]ethynyl]phenyl]-6-methoxy-imidazo[1,5-a]pyridine-3-carboxamide]	17 nM		6320 nM
CN1CC[C@@](O)(C#Cc2ccnc(-n3nc(C(N)=O)c4c3C[C@@]3(C)C[C@H]3C4)c2)C1=O [Compound 6, (4aS,5aR)-1-[4-[2-[(3R)-3-hydroxy-1-methyl-2-oxo-pyrroli-din-3-yl]ethynyl]-2-pyri-dyl]-5a-methyl-4,4a,5,6-tetrahydrocyclopropa[f]inda-zole-3-carboxamide]	901 nM	7.78 nM	10000 nM
CC1Cc2c(C(N)=O)nn(-c3cccc(C#C[C@]4(O)CCN(C)C4=O)c3)c2C1 (stereo partly drawn) [Compound 188, 1-[3-[2-[(3R)-3-hydroxy-1-methyl-2-oxo-pyrrolidin-3-yl]ethynyl]phenyl]-5-methyl-5,6-dihydro-4H-cyclopenta [c]pyrazole-3-carboxamide]	205 nM	0.85 nM	> 2000 nM
CN1CC[C@@](O)(C#Cc2cccc(-c3nc(C(N)=O)n4cccnc34)c2)C1=O [Compound 85, 8-[3-[2-[(3R)-3-hydroxy-1-methyl-2-oxo-pyrrolidin-3-yl]ethynyl]phenyl]imidazo[1,5-a]pyrimidine-6-carboxamide]	38.6 nM	0.05 nM	19200 nM
NC(=O)c1nn(-c2cc(C#C[C@]3(O)CCNC3=O)ccn2)c2cc(F)ccc12 [Compound 71, 6-fluoro-1-[4-[2-[(3R)-3-hy-droxy-2-oxo-pyrrolidin-3-yl]ethynyl]-2-pyridyl]indazole-3-carboxamide]	178 nM	0.64 nM	20000 nM
COc1cc2c(C(N)=O)nn(-c3cccc(C#C[C@]4(O)CCN(C)C4=O)c3)c2nn1 [Compound 173, 1-[3-[2-[(3R)-3-hydroxy-1-methyl-2-oxo-pyrrolidin-3-yl]ethynyl]phenyl]-5-methoxy-pyrazolo[3,4-c]pyridazine-3-carboxamide]	176 nM	0.55 nM	2000 nM
COc1ccn2c(C(N)=O)nc(-c3cccc(C#C[C@@](C)(O)c4nnc(C)o4)c3)c2c1 [Compound 181, 1-[3-[(3R)-3-hydroxy-3-(5-methyl-1,3,4-oxadiazol-2-yl)but-1-ynyl]phenyl]-7-methoxy-imidazo[1,5-a] pyridine-3-carboxamide]	48 nM	0.1 nM	> 2000 nM
CN1CC[C@@](O)(C#Cc2cc(F)cc(-n3nc(C(N)=O)c4cccnc43)c2)C1=O [Compound 18, 1-[3-fluoro-5-[2-[(3R)-3-hy-droxy-1-methyl-2-oxo-pyrroli-din-3-yl]ethynyl]phenyl] pyrazolo[3,4-b]pyridine-3-carboxamide]	138 nM	0.86 nM	20000 nM
CN1CC[C@@](O)(C#Cc2cccc(-n3nc(C(N)=O)c4ccc(C#N)cc43)c2)C1=O [Compound 46, 6-cyano-1-[3-[2-[(3R)-3-hy-droxy-1-methyl-2-oxo-pyrroli-din-3-yl]ethynyl]phenyl] indazole-3-carboxamide]	123 nM	0.5 nM	20000 nM
CN1CC[C@@](O)(C#Cc2cccc(-n3nc(C(N)=O)c4ccc(Cl)nc43)c2)C1=O [Compound 153, 6-chloro-1-[3-[2-[(3R)-3-hy-droxy-1-methyl-2-oxo-pyrroli-din-3-yl]ethynyl]phenyl] pyrazolo[3,4-b]pyridine-3-carboxamide]	132 nM	0.52 nM	2000 nM
CN1CC[C@@](O)(C#Cc2cccc(-n3nc(C(N)=O)c4cc(CO)ccc43)c2)C1=O [Compound 35, 5-(hydroxymethyl)-1-[3-[2-[(3R)-3-hydroxy-1-methyl-2-oxo-pyrrolidin-3-yl]ethynyl]phenyl]indazole-3-carbox-amide]	737 nM	1.48 nM	20000 nM
Cc1cc([C@](C)(O)C#Cc2ccnc(-n3nc(C(N)=O)c4c3CCCC4)c2)no1 [Compound 60, 1-[4-[(3R)-3-hydroxy-3-(5-methylisoxazol-3-yl)but-1-ynyl]-2-pyridyl]-4,5,6,7-tetra-hydroindazole-3-carbox-amide]	2310 nM	13.7 nM	20000 nM
CN1CC[C@@](O)(C#Cc2ccnc(-n3nc(C(N)=O)c4ccccc43)c2)C1=O [Compound 52, 1-[4-[2-[(3R)-3-hydroxy-1-methyl-2-oxo-pyrrolidin-3-yl]ethynyl]-2-pyridyl]indazole-3-carboxamide]	22.8 nM		20000 nM
CN1CC[C@@](O)(C#Cc2cccc(-n3nc(C(N)=O)c4cc(F)ccc43)c2)C1=O [Compound 13, 5-fluoro-1-[3-[2-[(3R)-3-hy-droxy-1-methyl-2-oxo-pyrroli-din-3-yl]ethynyl]phenyl] indazole-3-carboxamide]	73 nM		20000 nM
CN1CC[C@@](O)(C#Cc2cccc(-c3nc(C(N)=O)n4ccccc34)c2)C1=O [Compound 77, 1-[3-[2-[(3R)-3-hydroxy-1-methyl-2-oxo-pyrrolidin-3-yl]ethynyl]phenyl]imidazo[1,5-a]pyridine-3-carboxamide]	29.8 nM		20000 nM
COc1cnc2c(c1)c(C(N)=O)nn2-c1cccc(C#C[C@]2(O)CCN(C)C2=O)c1 [Compound 74, 1-[3-[2-[(3R)-3-hydroxy-1-methyl-2-oxo-pyrrolidin-3-yl]ethynyl]phenyl]-5-methoxy-pyrazolo[3,4-b]pyridine-3-carboxamide]	13.9 nM		8000 nM
CN1CC[C@@](O)(C#Cc2cccc(-c3nc(C(N)=O)c4ccccn34)c2)C1=O [Compound 88, 3-[3-[2-[(3R)-3-hydroxy-1-methyl-2-oxo-pyrrolidin-3-yl]ethynyl]phenyl]imidazo[1,5-a]pyridine-1-carboxamide]	240 nM		20000 nM
CN1CC[C@@](O)(C#Cc2ccnc(-n3nc(C(N)=O)c4cc(F)ccc43)c2)C1=O [Compound 54, 5-fluoro-1-[4-[2-[(3R)-3-hy-droxy-1-methyl-2-oxo-pyrroli-din-3-yl]ethynyl]-2-pyri-diyl]indazole-3-carboxamide]	39 nM		2000 nM
CN1CC[C@@](O)(C#Cc2ccnc(-n3nc(C(N)=O)c4c3CCCC4)c2)C1=O [Compound 51, 1-[4-[2-[(3R)-3-hydroxy-1-methyl-2-oxo-pyrrolidin-3-yl]ethynyl]-2-pyridyl]-4,5,6,7-tetrahydroindazole-3-carbox-amide]	225 nM		7190 nM
